From patent US4923888A, “Butenoic acid amides, their salts, and pharmaceutical compositions containing them” (Richter Gedeon Vegyeszeti Gyar RT, priority 1987, dated 1990)

Tests used:
[1] = test system: glandular part of the stomach; assay: acid-ethanol test (cytoprotective action, method of A. Robert); type: in vivo, rats; details: oral; for ED50: Rattus norvegicus, acid-ethanol test, starved rats, read-out: Cytoprotective effect ED50
Description: Starved rats were given absolute ethanol containing concentrated hydrochloric acid which induced longitudinal bleedings in the glandular part of the stomach within a short time. This damaging effect is prevented by cytoprotective substances.
The oral ED50 values of some compounds according to the invention, which were examined in the acid-ethanol test, are shown in Table 1.

[2] = test system: chronic stomach ulcer; assay: acetic acid-induced chronic stomach ulcer model (promoting the healing); type: in vivo, rats; details: for Ulcer index: ± S.E.M
Protocol: The investigation of (the effect promoting the healing of) the chronic stomach ulcer induced by acetic acid was carried out as follows. In the course of examining the healing-promoting effect, one of the most widely used methods namely, the so-called acetic acid-induced chronic stomach ulcer model was used [Takagi et. al.: Jap. […] The abdominal wall of anaesthetized rats was opened and 50 μl of a 20% acetic acid solution were injected into the stomach wall, then the abdominal wall of the animal was sutured. The treatment by the test compounds was started on day 5 following the surgical operation and continued until day 14 by using the daily doses shown in Table 2. Then, the animals were killed and their stomachs were examined. The extent of ulceration was assessed by measuring the diameter of the ulcer, wherefrom the size of the damaged area could be calculated. For characterizing the degree of the cicatrization, the change in the ulcer index measured in the treated animals was related to the values measured in the untreated (control) animals and expressed as percentage values.

[3] = oral toxicity; type: in vivo
[4] = 10 × 10 mg/kg/day p.o., Table 2
[5] = 10 × 10 mg/kg/day p.o., P <0.01 vs control (C only)
[6] = 50 × 10 mg/kg/day p.o., Table 3

CCOC(=O)CC(NC(=O)/C=C/C(=O)c1ccccc1)C(=O)OCC (racemic) [B, diethyl N-[4-oxo-4-phenyl-2(E)-butenoyl]-(RS)-aspartate]
ED50 [1]: 2.6 mg/kg | Change in the ulcer index related to the control (promotion of the healing) [2, 4]: 34% | Ulcer index [2, 5]: 7.7 ± 2.8 mm^2 /stomach | Change in the ulcer index related to the control (promotion of the healing) ([2]; 30 × 10 mg/kg/day p.o., Table 2): 63% | Ulcer index ([2]; 30 × 10 mg/kg/day p.o., P <0.01 vs control (B)): 4.2 ± 1.8 mm^2 /stomach | difference between the healing-promoting effects of the R and RS modifications ([2]; statement on Table 2): highly significant difference

CCOC(=O)C[C@H](NC(=O)/C=C/C(=O)c1ccccc1)C(=O)OCC [A, diethyl N-[4-oxo-4-phenyl-2(E)-butenoyl]-(S)-aspartate]
ED50 [1]: 3.8 mg/kg | healing of the ulcer, result in words ([2]; 40 mg/kg oral dose, statement on Table 2): not promoted | Change in the ulcer index related to the control (delaying of the healing) ([2]; 40 × 10 mg/kg/day p.o., Table 2): 11% | Ulcer index ([2]; 40 × 10 mg/kg/day p.o.): 13.4 ± 2.1 mm^2 /stomach

CCOC(=O)C[C@@H](NC(=O)/C=C/C(=O)c1ccccc1)C(=O)OCC [C, diethyl N-[4-oxo-4-phenyl-2(E)-butenoyl]-(R)-aspartate]
ED50 [1]: 1.7 mg/kg | cytoprotective test, comparison in words ([1]; statement on Table 1): most effective | toxicity, oral dose of 1200 mg/kg [3]: not toxic | healing of the ulcer accelerated ([2]; 3 mg/kg oral dose, statement on Table 2): 57% | Change in the ulcer index related to the control (delaying of the healing) ([2]; 1 × 10 mg/kg/day p.o., Table 2): 13% | Ulcer index ([2]; 1 × 10 mg/kg/day p.o.): 13.1 ± 3.5 mm^2 /stomach | Change in the ulcer index related to the control (promotion of the healing) ([2]; 3 × 10 mg/kg/day p.o., Table 2): 57% | Ulcer index ([2]; 3 × 10 mg/kg/day p.o., P <0.01 vs control): 5.0 ± 1.2 mm^2 /stomach | Change in the ulcer index related to the control (promotion of the healing) [2, 4]: 77% | Ulcer index [2, 5]: 2.7 ± 1.1 mm^2 /stomach | healing-promoting effect compared with reference drugs ([2]; R isomer vs reference drugs of Table 3): greatly exceeds that of the reference drugs | difference between the healing-promoting effects of the R and RS modifications ([2]; statement on Table 2): highly significant difference

NC[C@H]1CC[C@H](C(=O)Oc2ccc(CCC(=O)O)cc2)CC1 [Cetraxate, reference compound]
Change in the ulcer index related to the control (promotion of the healing) ([2]; 150 × 10 mg/kg/day p.o., Table 3): 49%

CN/C(=N/CCSCc1nc[nH]c1C)NC#N [Cimetidine, reference compound]
Change in the ulcer index related to the control (promotion of the healing) [2, 6]: 17%

C[S+](C)CCC(N)C(=O)O (stereo not shown) [MMSC, Methylmethionine sulfonium chloride, reference compound]
Change in the ulcer index related to the control (promotion of the healing) [2, 6]: 59%

CN1CCN(CC(=O)N2c3ccccc3C(=O)Nc3cccnc32)CC1 [Pirenzepine, reference compound]
Change in the ulcer index related to the control (promotion of the healing) ([2]; 12 × 10 mg/kg/day p.o., Table 3): 13%

CC(=O)c1ccc2c(c1)C(=O)C1(CC1)O2 [Spizofuron, reference compound]
Change in the ulcer index related to the control (promotion of the healing) [2, 6]: 11%

Sucralfate [reference compound]
Change in the ulcer index related to the control (promotion of the healing) ([2]; 500 × 10 mg/kg/day p.o., Table 3): 55%
